Values of other authors, collected in patent US20240384284A1, “FEED CROPS FOR REDUCED METHANOGENESIS IN LIVESTOCK” (Elysia Creative Biology, LLC, priority 2023, published 2024).

System: methanogenesis

Structure (SMILES): BrC(Br)Br [Bromoform]
- in vivo methane reduction: up to 98%
